The values that follow come from patent US20100069323A1, “COMPOSITION FOR APPLICATION TO SKIN OR MUCOSA” (priority 2006, published 2010).

This data set concerns rabbit corneal epithelial cell line SIRC. In words: Evaluation of cytotoxicity of prepared alginic acid (Cell Counting Kit-8 viable cell detection). It counts as cell-based. The procedure: The test for toxicity of the alginic acid prepared above (Example 1 and Comparative Examples 1 and 2) to cells was carried out. First, an alginic acid solution was prepared by dissolving each alginic acid to a concentration of 0.2 or 2.0% (w/v) in a cell culture medium of medium 199 (GIBCO) supplemented with 10% (v/v) fetal bovine serum (Daiichi Kagaku Yakuhin). Then, rabbit corneal epithelial cell line SIRC (ATCC number: CCL-60) was plated at 2.0×10^5 cells/well in 48-well microtiter plate (Corning), and alginic acid solution prepared above was added to obtain a final concentration of 0.1 or 1.0% (w/v) of alginic acid, and the cells were subsequently cultured under the condition of 37° C., 5% CO2 and 90% relative humidity. […] After 1 hour, the absorbance (450 nm) of the dye developed by reacting with the viable cells was measured using a spectrophotometer (Thermo Electron). With the observed value of the absorbance, cell viability was calculated in the following equation, and the cytotoxicity of each alginic acid was evaluated.
Cell viability(%)=100×(absorbance of the group in which each alginic acid solution was added−absorbance of the medium containing a reagent for viable cell detection)/(absorbance of the control group−absorbance of the medium containing a reagent for viable cell detection) Equation 5
Background: Formazan colour is commonly taken as a measure of viable cells.

On to alginic acid [Comparative Example 2], for which the Cell viability result is recorded as “about 5%”; the “microscopic observation of cells” value was “lost their adhesive capacity and floated”.
